# The kinase profiling compilation of Christmann-Franck et al. (2016)
# What was measured:
# Assay in all cases: radiometric filter-binding kinase assay
# MAPKAPK2 (human) = MAPKAPK2 (human) (UniProt P49137)
# CSNK1D (human) = CSNK1D (human) (UniProt P48730)
# RPS6KA5 KD1 KD2 (human) = RPS6KA5 KD1 KD2 (human) (UniProt O75582)
# MAPK15 (human) = MAPK15 (human) (UniProt Q8TD08)
# MAPK12 (human) = MAPK12 (human) (UniProt P53778)
# CAMKK2 (human) = CAMKK2 (human) (UniProt Q96RR4)
# PLK1 (human) = PLK1 (human) (UniProt P53350)
# IGF1R (human) = IGF1R (human) (UniProt P08069)
# IKBKE (human) = IKBKE (human) (UniProt Q14164)
# CHEK1 (human) = CHEK1 (human) (UniProt O14757)
# PAK7 (human) = PAK7 (human) (UniProt Q9P286)
# PAK7 (human), sequence (Q9P286 whole entry, looked up): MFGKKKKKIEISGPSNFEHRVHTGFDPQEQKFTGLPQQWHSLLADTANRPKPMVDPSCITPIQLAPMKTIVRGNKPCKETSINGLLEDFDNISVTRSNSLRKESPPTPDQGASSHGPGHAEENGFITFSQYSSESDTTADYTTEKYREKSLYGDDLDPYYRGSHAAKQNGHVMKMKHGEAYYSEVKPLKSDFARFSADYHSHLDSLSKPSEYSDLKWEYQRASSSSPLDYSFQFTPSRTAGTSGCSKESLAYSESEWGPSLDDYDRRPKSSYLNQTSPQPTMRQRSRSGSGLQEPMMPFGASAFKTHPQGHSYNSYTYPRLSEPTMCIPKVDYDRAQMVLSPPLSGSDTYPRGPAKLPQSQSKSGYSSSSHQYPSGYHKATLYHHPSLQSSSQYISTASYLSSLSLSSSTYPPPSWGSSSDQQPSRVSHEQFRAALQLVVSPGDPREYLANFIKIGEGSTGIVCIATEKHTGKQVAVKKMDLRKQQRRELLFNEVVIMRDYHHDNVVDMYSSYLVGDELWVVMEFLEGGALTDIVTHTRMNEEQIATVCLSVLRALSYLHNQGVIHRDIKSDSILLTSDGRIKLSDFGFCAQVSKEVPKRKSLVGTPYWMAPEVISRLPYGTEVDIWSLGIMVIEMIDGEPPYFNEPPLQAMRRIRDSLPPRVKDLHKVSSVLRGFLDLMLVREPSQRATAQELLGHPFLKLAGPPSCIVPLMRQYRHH
# PIM3 (human) = PIM3 (human) (UniProt Q86V86)
# [1] = system: SGK1 (human), O00141 [S422D]
# DYRK1A (human) = DYRK1A (human) (UniProt Q13627)
# PKN2 (human) = PKN2 (human) (UniProt Q16513)
# MST4 (human) = MST4 (human) (UniProt Q9P289)
# MAPK3 (human) = MAPK3 (human) (UniProt P27361)
# NEK2 (human) = NEK2 (human) (UniProt P51955)
# RPS6KA3 KD1 KD2 (human) = RPS6KA3 KD1 KD2 (human) (UniProt P51812)
# RPS6KA3 KD1 KD2 (human), sequence (P51812 whole entry, looked up): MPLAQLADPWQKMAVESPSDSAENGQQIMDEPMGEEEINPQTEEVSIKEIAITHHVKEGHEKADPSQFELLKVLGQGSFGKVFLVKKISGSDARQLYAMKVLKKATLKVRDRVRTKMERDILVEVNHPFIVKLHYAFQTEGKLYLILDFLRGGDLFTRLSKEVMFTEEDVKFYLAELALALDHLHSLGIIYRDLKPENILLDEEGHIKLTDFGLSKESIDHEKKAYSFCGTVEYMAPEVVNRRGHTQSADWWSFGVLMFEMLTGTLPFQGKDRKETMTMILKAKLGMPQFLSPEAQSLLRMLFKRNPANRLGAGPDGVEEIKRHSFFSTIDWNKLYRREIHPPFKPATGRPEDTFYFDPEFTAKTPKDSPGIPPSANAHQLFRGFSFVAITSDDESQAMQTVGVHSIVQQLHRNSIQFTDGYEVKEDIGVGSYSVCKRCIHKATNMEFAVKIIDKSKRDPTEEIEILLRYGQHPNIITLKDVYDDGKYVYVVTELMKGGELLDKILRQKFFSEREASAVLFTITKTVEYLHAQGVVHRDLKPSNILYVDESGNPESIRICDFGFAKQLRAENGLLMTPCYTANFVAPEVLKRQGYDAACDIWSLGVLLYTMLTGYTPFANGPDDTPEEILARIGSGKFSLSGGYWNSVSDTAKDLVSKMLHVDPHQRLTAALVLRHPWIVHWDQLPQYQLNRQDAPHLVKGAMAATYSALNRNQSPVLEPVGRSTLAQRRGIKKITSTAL
# [2] = system: AKT2 (human), P31751 [S474D]
# PAK6 (human) = PAK6 (human) (UniProt Q9NQU5)
# SRPK1 (human) = SRPK1 (human) (UniProt Q96SB4)
# MAPK14 (human) = MAPK14 (human) (UniProt Q16539)
# NEK6 (human) = NEK6 (human) (UniProt Q9HC98)
# PAK4 (human) = PAK4 (human) (UniProt O96013)
# PAK4 (human), sequence (O96013 whole entry, looked up): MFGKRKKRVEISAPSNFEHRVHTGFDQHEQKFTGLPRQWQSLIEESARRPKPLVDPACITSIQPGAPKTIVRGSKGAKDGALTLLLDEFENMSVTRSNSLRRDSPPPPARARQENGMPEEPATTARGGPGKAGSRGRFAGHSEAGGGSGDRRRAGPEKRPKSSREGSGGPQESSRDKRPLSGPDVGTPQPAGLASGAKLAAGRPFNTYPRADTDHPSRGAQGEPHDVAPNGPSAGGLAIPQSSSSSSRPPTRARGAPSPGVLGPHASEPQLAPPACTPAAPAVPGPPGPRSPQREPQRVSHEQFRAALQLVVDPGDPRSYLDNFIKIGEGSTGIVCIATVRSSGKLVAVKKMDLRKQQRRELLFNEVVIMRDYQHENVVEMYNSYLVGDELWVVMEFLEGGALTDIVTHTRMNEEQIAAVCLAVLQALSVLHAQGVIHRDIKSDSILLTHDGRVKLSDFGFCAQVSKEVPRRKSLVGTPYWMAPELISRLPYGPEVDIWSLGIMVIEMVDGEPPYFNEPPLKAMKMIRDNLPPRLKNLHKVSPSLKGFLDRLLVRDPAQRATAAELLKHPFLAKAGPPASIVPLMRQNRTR
# PIM2 (human) = PIM2 (human) (UniProt Q9P1W9)
# RPS6KA5 KD1 KD2 (human), sequence (O75582 whole entry, looked up): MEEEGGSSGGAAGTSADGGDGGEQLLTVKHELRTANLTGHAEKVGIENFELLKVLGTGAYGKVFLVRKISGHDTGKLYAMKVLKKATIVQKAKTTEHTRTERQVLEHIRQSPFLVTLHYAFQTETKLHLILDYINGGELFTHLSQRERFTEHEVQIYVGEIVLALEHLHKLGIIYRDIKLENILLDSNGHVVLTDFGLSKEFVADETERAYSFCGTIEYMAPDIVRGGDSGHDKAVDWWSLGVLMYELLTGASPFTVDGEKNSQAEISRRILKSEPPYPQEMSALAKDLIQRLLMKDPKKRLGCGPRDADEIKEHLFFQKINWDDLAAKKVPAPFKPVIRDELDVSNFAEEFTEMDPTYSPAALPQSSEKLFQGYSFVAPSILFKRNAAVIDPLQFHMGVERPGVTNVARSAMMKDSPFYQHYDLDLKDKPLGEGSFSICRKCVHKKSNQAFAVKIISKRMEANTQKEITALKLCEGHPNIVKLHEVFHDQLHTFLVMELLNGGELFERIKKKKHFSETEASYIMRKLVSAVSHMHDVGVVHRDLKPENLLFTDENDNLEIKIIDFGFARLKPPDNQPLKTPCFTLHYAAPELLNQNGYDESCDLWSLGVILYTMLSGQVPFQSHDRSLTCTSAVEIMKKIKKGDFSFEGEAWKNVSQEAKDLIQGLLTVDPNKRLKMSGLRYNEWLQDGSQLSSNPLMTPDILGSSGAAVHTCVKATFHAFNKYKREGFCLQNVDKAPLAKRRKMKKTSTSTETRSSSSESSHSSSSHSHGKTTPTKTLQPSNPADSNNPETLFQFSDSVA
# CAMKK2 (human), sequence (Q96RR4 whole entry, looked up): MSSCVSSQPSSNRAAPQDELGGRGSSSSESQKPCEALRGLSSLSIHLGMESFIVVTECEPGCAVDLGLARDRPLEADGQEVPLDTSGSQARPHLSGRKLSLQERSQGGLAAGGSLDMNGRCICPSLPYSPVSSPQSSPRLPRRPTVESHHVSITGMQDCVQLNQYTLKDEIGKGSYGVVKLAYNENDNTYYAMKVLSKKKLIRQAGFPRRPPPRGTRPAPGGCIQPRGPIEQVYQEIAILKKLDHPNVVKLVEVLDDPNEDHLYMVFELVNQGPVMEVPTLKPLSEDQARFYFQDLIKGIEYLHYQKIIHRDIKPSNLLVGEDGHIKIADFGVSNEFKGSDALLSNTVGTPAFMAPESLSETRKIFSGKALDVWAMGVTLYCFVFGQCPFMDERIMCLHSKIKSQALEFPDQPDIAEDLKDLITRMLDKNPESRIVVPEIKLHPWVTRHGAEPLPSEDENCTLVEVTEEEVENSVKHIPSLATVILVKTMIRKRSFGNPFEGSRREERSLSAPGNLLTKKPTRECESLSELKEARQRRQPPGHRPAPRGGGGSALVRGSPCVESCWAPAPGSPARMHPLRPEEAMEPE
# MAPKAPK2 (human), sequence (P49137 whole entry, looked up): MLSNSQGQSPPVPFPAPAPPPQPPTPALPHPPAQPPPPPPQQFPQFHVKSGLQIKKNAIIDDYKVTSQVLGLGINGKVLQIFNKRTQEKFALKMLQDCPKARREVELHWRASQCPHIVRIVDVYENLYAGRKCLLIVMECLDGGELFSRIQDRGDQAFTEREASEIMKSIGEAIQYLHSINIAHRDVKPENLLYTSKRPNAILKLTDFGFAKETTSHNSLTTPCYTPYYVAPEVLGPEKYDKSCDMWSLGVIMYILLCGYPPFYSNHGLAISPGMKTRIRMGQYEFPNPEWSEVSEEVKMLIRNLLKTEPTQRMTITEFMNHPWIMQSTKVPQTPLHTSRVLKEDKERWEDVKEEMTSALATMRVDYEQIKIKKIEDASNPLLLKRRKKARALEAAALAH
# MAPK15 (human), sequence (Q8TD08 whole entry, looked up): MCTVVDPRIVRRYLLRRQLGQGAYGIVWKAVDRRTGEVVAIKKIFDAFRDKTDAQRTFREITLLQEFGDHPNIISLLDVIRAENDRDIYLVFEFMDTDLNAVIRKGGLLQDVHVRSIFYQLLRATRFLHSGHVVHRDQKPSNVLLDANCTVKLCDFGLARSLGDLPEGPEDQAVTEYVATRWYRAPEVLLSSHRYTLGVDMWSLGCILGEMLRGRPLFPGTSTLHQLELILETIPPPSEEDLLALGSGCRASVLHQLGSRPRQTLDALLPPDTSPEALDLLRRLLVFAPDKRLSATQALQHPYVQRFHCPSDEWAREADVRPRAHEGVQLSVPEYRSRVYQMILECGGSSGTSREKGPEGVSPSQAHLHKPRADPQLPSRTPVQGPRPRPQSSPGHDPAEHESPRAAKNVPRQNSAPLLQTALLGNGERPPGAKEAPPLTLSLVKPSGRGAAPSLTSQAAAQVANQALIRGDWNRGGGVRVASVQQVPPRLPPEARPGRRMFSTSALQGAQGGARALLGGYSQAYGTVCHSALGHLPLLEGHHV
# CSNK1D (human), sequence (P48730 whole entry, looked up): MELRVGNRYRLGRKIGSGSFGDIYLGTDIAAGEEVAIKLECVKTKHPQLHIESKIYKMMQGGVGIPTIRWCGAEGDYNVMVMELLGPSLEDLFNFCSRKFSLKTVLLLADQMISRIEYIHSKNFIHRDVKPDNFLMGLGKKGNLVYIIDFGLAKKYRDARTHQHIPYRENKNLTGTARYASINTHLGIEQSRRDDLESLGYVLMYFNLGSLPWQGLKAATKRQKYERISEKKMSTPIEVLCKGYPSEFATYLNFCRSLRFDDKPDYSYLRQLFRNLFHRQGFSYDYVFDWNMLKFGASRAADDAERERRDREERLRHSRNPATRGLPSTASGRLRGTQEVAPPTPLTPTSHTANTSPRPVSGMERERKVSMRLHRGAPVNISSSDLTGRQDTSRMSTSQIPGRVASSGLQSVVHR
smiles,measurement,setting,value
Cn1c(=O)c2c(ncn2C)n(C)c1=O,residual activity,MAPKAPK2 (human); compound 0.1 µM,102%
same,residual activity,MAPKAPK2 (human); compound 1.0 µM,89%
same,residual activity,CSNK1D (human); compound 0.1 µM,118%
same,residual activity,CSNK1D (human); compound 1.0 µM,120%
same,residual activity,RPS6KA5 KD1 KD2 (human); compound 0.1 µM,80%
same,residual activity,RPS6KA5 KD1 KD2 (human); compound 1.0 µM,82%
same,residual activity,MAPK15 (human); compound 0.1 µM,88%
same,residual activity,MAPK15 (human); compound 1.0 µM,95%
same,residual activity,MAPK12 (human); compound 0.1 µM,97%
same,residual activity,MAPK12 (human); compound 1.0 µM,110%
same,residual activity,CAMKK2 (human); compound 0.1 µM,104%
same,residual activity,CAMKK2 (human); compound 1.0 µM,103%
same,residual activity,PLK1 (human); compound 0.1 µM,92%
same,residual activity,PLK1 (human); compound 1.0 µM,95%
same,residual activity,IGF1R (human); compound 0.1 µM,86%
same,residual activity,IGF1R (human); compound 1.0 µM,94%
same,residual activity,IKBKE (human); compound 0.1 µM,87%
same,residual activity,IKBKE (human); compound 1.0 µM,90%
same,residual activity,CHEK1 (human); compound 0.1 µM,88%
same,residual activity,CHEK1 (human); compound 1.0 µM,96%
same,residual activity,PAK7 (human); compound 0.1 µM,102%
same,residual activity,PAK7 (human); compound 1.0 µM,114%
same,residual activity,PIM3 (human); compound 0.1 µM,99%
same,residual activity,PIM3 (human); compound 1.0 µM,97%
same,residual activity,[1]; compound 0.1 µM,102%
same,residual activity,DYRK1A (human); compound 0.1 µM,92%
same,residual activity,DYRK1A (human); compound 1.0 µM,96%
same,residual activity,PKN2 (human); compound 0.1 µM,89%
same,residual activity,MST4 (human); compound 0.1 µM,96%
same,residual activity,MST4 (human); compound 1.0 µM,97%
same,residual activity,MAPK3 (human); compound 0.1 µM,99%
same,residual activity,MAPK3 (human); compound 1.0 µM,113%
same,residual activity,NEK2 (human); compound 0.1 µM,107%
same,residual activity,NEK2 (human); compound 1.0 µM,102%
same,residual activity,RPS6KA3 KD1 KD2 (human); compound 0.1 µM,98%
same,residual activity,RPS6KA3 KD1 KD2 (human); compound 1.0 µM,79%
same,residual activity,[2]; compound 0.1 µM,81%
same,residual activity,[2]; compound 1.0 µM,84%
same,residual activity,PAK6 (human); compound 0.1 µM,97%
same,residual activity,PAK6 (human); compound 1.0 µM,101%
same,residual activity,SRPK1 (human); compound 0.1 µM,93%
same,residual activity,SRPK1 (human); compound 1.0 µM,97%
same,residual activity,MAPK14 (human); compound 0.1 µM,88%
same,residual activity,MAPK14 (human); compound 1.0 µM,89%
same,residual activity,NEK6 (human); compound 0.1 µM,79%
same,residual activity,NEK6 (human); compound 1.0 µM,89%
same,residual activity,PAK4 (human); compound 0.1 µM,99%
same,residual activity,PAK4 (human); compound 1.0 µM,100%
same,residual activity,PIM2 (human); compound 0.1 µM,113%
C[C@H]1CCCC(=O)CCC/C=C/c2cc(O)cc(O)c2C(=O)O1,residual activity,MAPKAPK2 (human); compound 1.0 µM,101%
same,residual activity,MAPKAPK2 (human); compound 10.0 µM,92%
same,residual activity,CSNK1D (human); compound 1.0 µM,99%
same,residual activity,CSNK1D (human); compound 10.0 µM,83%
same,residual activity,RPS6KA5 KD1 KD2 (human); compound 10.0 µM,36%
same,residual activity,MAPK15 (human); compound 1.0 µM,77%
same,residual activity,MAPK15 (human); compound 10.0 µM,26%
same,residual activity,MAPK12 (human); compound 1.0 µM,97%
same,residual activity,MAPK12 (human); compound 10.0 µM,93%
same,residual activity,CAMKK2 (human); compound 1.0 µM,90%
same,residual activity,CAMKK2 (human); compound 10.0 µM,52%
same,residual activity,PLK1 (human); compound 1.0 µM,76%
same,residual activity,PLK1 (human); compound 10.0 µM,63%
same,residual activity,IGF1R (human); compound 1.0 µM,93%
same,residual activity,IGF1R (human); compound 10.0 µM,64%
same,residual activity,IKBKE (human); compound 1.0 µM,95%
same,residual activity,IKBKE (human); compound 10.0 µM,82%
same,residual activity,CHEK1 (human); compound 1.0 µM,92%
same,residual activity,CHEK1 (human); compound 10.0 µM,81%
same,residual activity,PAK7 (human); compound 1.0 µM,93%
same,residual activity,PAK7 (human); compound 10.0 µM,80%
same,residual activity,PIM3 (human); compound 1.0 µM,49%
same,residual activity,PIM3 (human); compound 10.0 µM,18%
same,residual activity,[1]; compound 1.0 µM,93%
same,residual activity,[1]; compound 10.0 µM,93%
same,residual activity,DYRK1A (human); compound 10.0 µM,32%
same,residual activity,PKN2 (human); compound 1.0 µM,70%
same,residual activity,PKN2 (human); compound 10.0 µM,33%
same,residual activity,MST4 (human); compound 10.0 µM,66%
same,residual activity,MAPK3 (human); compound 1.0 µM,113%
same,residual activity,MAPK3 (human); compound 10.0 µM,107%
same,residual activity,NEK2 (human); compound 1.0 µM,93%
same,residual activity,NEK2 (human); compound 10.0 µM,96%
same,residual activity,RPS6KA3 KD1 KD2 (human); compound 1.0 µM,80%
same,residual activity,RPS6KA3 KD1 KD2 (human); compound 10.0 µM,52%
same,residual activity,[2]; compound 1.0 µM,97%
same,residual activity,[2]; compound 10.0 µM,89%
same,residual activity,PAK6 (human); compound 1.0 µM,99%
same,residual activity,PAK6 (human); compound 10.0 µM,94%
same,residual activity,SRPK1 (human); compound 1.0 µM,95%
same,residual activity,SRPK1 (human); compound 10.0 µM,89%
same,residual activity,MAPK14 (human); compound 1.0 µM,93%
same,residual activity,MAPK14 (human); compound 10.0 µM,85%
same,residual activity,NEK6 (human); compound 1.0 µM,91%
same,residual activity,NEK6 (human); compound 10.0 µM,91%
same,residual activity,PAK4 (human); compound 1.0 µM,95%
same,residual activity,PAK4 (human); compound 10.0 µM,90%
same,residual activity,PIM2 (human); compound 1.0 µM,86%
same,residual activity,PIM2 (human); compound 10.0 µM,45%
